Measurements from US20260092061A1, “COMPOUNDS FOR TARGETED PROTEIN DEGRADATION” (Amphista Therapeutics Limited, priority 2022, published 2026).
Where two headings read alike, the source gives them in different places.

What was measured:
BRD9 [1] = target: T1, BRD9 (Homo sapiens, UniProt Q9H8M2); test: Degradation of BRD9 (IF), immunofluorescence in MV4-11 cells, 24 hours (Assay Protocol 2); type: cell-based; set-up: A suspension of MV4-11 cells (ATCC CRL-9591) was prepared; host or cells: MV4-11
T1 sequence (Q9H8M2 1-597): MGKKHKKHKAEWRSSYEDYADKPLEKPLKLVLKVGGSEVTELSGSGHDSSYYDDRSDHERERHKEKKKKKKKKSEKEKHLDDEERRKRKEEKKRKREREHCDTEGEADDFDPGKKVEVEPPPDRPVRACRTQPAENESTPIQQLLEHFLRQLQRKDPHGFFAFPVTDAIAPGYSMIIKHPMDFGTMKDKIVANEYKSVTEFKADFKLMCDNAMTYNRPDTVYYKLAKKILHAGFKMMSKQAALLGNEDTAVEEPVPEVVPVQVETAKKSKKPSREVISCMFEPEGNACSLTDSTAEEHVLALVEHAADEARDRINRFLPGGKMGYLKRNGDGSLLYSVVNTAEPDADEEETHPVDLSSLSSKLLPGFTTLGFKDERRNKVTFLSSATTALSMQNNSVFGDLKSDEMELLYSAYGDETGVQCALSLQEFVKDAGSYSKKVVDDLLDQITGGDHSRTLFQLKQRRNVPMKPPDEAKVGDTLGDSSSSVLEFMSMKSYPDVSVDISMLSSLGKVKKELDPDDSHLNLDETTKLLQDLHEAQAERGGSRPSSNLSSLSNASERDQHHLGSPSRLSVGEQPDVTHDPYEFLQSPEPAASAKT
Outline: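 MV4-11 cells treated with compound 24 h at 37° C., then fixed, permeabilised and immunostained for BRD9 (anti-BRD9 E4Q3F, Alexa 647 secondary, Hoechst counterstain). High-content imaging quantified nuclear BRD9 signal; % BRD9 remaining normalised to DMSO and 100 nM CFT-8634 controls.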

BRD9 [2] = target: T1, BRD9; test: BRD9 degradation, HiBiT-BRD9 KI HEK293 (LgBiT) cells, NanoGlo Lytic Endpoint assay (Assay Protocol 1); type: cell-based; details: for Dmax / Dmax at 1 µM: HEK293
Outline: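 HiBiT-tagged BRD9 knock-in HEK293 (LgBiT) cells exposed to compounds for 6 h at 37 °C, 5% CO2. Residual BRD9 measured by HiBiT lytic luminescence. % BRD9 remaining normalised to DMSO-treated cells (high) and no-cell wells (low).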

[3] = MV4-11, Table 4, BRD9 degradation, determined according to Assay Protocol 2, read-out: Dmax^2
[4] = Table 4, BRD9 degradation, determined according to Assay Protocol 2, read-out: DC50^2
[5] = Table 4, BRD9 degradation, determined according to Assay Protocol 1, read-out: Dmax^1
[6] = Table 5, assay protocol 1, read-out: BRD9 Dmax (%)
[7] = Table 4, BRD9 degradation, determined according to Assay Protocol 1, read-out: DC50^1
[8] = Table 5, assay protocol 1, read-out: BRD9 DC50
[9] = MV4-11, 24 h, Table 2, BRD9 degradation (IF), Assay Protocol 2, MV4-11 cells, read-out: Assay 2 DCmax
[10] = Table 2, BRD9 degradation (IF), Assay Protocol 2, MV4-11 cells, read-out: Assay 2 DC50
[11] = Table 2, BRD9 degradation, Assay Protocol 1, 1 μM compound at 6 h of treatment, read-out: Assay 1 Dmax
[12] = Table 3, assay 1, 1 μM compound at 5 h of treatment, read-out: BRD9 Dmax (%)
[13] = Table 2, BRD9 degradation, Assay Protocol 1, 6 h of treatment, read-out: Assay 1 DC50
[14] = MV4-11, Table 5, cells marked *: measured in accordance with Assay Protocol 2, read-out: BRD9 Dmax (%)
[15] = Table 5, cells marked *: measured in accordance with Assay Protocol 2, read-out: BRD9 DC50

SMILES | Dmax (BRD9 [1]; [3]) | DC50 (BRD9 [1]; [4]) | Dmax (BRD9 [2]; [5]) | Dmax (BRD9 [2]; [6]) | DC50 (BRD9 [2]; [7]) | DC50 (BRD9 [2]; [8]) | Dmax (BRD9 [1]; [9]) | DC50 (BRD9 [1]; [10]) | Dmax at 1 µM (BRD9 [2]; [11]) | Dmax at 1 µM (BRD9 [2]; [12]) | DC50 (BRD9 [2]; [13]) | Dmax (BRD9 [2]; [12]) | Dmax (BRD9 [1]; [14]) | DC50 (BRD9 [1]; [15])
COc1cc(-c2cn(C)c(=O)c(C)c2C)cc(OC)c1CN1CC2CC1CN2C(=O)/C(C#N)=C/C(C)(C)C (mixture of isomers) [BRD9b] | 50 to 70% | < 25 nM | > 70% | 70 to 75% | < 25 nM | 10 to 25 nM | – | – | – | – | – | – | – | –
COc1cc(-c2cn(C)c(=O)c(C)c2C)cc(OC)c1CN1CC2CC1CN2C(=O)/C(C#N)=C/c1nccs1 (mixture of isomers) [BRD9i, (E/Z)-2-(5-(2,6-dimethoxy-4-(1,4,5-trimethyl-6-oxo-1,6-dihydropyridin-3-yl)benzyl)-2,5-diazabicyclo[2.2.1]heptane-2-carbonyl)-3-(thiazol-2-yl)acrylonitrile] | – | < 25 nM | 50 to 70% | 40 to 70% | 25 to 200 nM | 25 to 1000 nM | – | – | – | – | – | – | – | –
COc1cc(-c2cn(C)c(=O)c(C)c2C)cc(OC)c1CN1C2CC1CN(C(=O)/C(C#N)=C/c1cccc(Br)n1)C2 (mixture of isomers) [BRD9o, (E/Z)-3-(6-bromopyridin-2-yl)-2-(6-(2,6-dimethoxy-4-(1,4,5-trimethyl-6-oxo-1,6-dihydropyridin-3-yl)benzyl)-3,6-diazabicyclo[3.1.1]heptane-3-carbonyl)acrylonitrile] | – | 25 to 200 nM | > 70% | > 75% | – | 10 to 25 nM | – | – | – | – | – | – | – | –
COc1cc(-c2cn(C)c(=O)c(C)c2C)cc(OC)c1CN1CCN(Cc2cccc3c2CCN(C(=O)/C(C#N)=C/c2nccs2)C3C)CC1 (mixture of isomers) [Compound A4, (E/Z)-2-(5-((4-(2,6-dimethoxy-4-(1,4,5-trimethyl-6-oxo-1,6-dihydropyridin-3-yl)benzyl)piperazin-1-yl)methyl)-1-methyl-1,2,3,4-tetrahydroisoquinoline-2-carbonyl)-3-(thiazol-2-yl)acrylonitrile] | – | – | – | – | – | – | 70 to 75% | < 1.25 nM | 70 to 75% | 70 to 75% | < 1.25 nM | – | – | –
COc1cc(-c2cn(C)c(=O)c3cnccc23)cc(OC)c1CN1CCN(Cc2cccc3c2CCN(C(=O)/C(C#N)=C\c2ncc(C)s2)C3C)CC1 (mixture of isomers) [Compound A10, (E/Z)-2-(5-((4-(2,6-dimethoxy-4-(2-methyl-1-oxo-1,2-dihydro-2,7-naphthyridin-4-yl)benzyl)piperazin-1-yl)methyl)-1-methyl-1,2,3,4-tetrahydroisoquinoline-2-carbonyl)-3-(5-methylthiazol-2-yl)acrylonitrile] | – | – | – | – | – | – | 40 to 70% | < 1.25 nM | 40 to 70% | – | < 1.25 nM | 40 to 70% | – | –
COc1cc(-c2cn(C)c(=O)c(C)c2C)cc(OC)c1CN1CCN(Cc2cccc3c2CCN(C(=O)/C(C#N)=C/c2cccc(Br)n2)C3C)CC1 (mixture of isomers) [Compound A16, (E/Z)-3-(6-bromopyridin-2-yl)-2-(5-((4-(2,6-dimethoxy-4-(1,4,5-trimethyl-6-oxo-1,6-dihydropyridin-3-yl)benzyl)piperazin-1-yl)methyl)-1-methyl-1,2,3,4-tetrahydroisoquinoline-2-carbonyl) acrylonitrile] | – | – | – | – | – | – | 40 to 70% | < 1.25 nM | 70 to 75% | 70 to 75% | 1.25 to 10 nM | – | – | –
COc1cc(-c2cn(C)c(=O)c3cnccc23)cc(OC)c1CN(C)Cc1cccc2c1CCN(C(=O)/C(C#N)=C/c1cccc(Br)n1)C2C (mixture of isomers) [Compound A50] | – | – | – | – | – | – | > 75% | 1.25 to 10 nM | > 75% | > 75% | < 1.25 nM | – | – | –
COc1cc(-c2cn(C)c(=O)c(C)c2C)cc(OC)c1CN1CCC(Oc2cccc3c2CCN(C(=O)/C(C#N)=C/c2cccc(Br)n2)C3C)CC1 (mixture of isomers) [Compound A68, (E/Z)-3-(6-bromopyridin-2-yl)-2-(5-((1-(2,6-dimethoxy-4-(1,4,5-trimethyl-6-oxo-1,6-dihydropyridin-3-yl)benzyl)piperidin-4-yl)oxy)-1-methyl-1,2,3,4-tetrahydroisoquinoline-2-carbonyl)acrylonitrile] | – | – | – | – | – | – | 40 to 70% | < 1.25 nM | > 75% | > 75% | 1.25 to 10 nM | – | – | –
COc1cc(-c2cn(C)c(=O)c(C)c2C)cc(OC)c1CN1CC2CC(C1)N2Cc1cccc2c1CCN(C(=O)/C(C#N)=C/C(C)(C)C)C2C (mixture of isomers) [Compound A71, (E/Z)-2-(5-((3-(2,6-dimethoxy-4-(1,4,5-trimethyl-6-oxo-1,6-dihydropyridin-3-yl)benzyl)-3,6-diazabicyclo[3.1.1]heptan-6-yl)methyl)-1-methyl-1,2,3,4-tetrahydroisoquinoline-2-carbonyl)-4,4-dimethylpent-2-enenitrile] | – | – | – | – | – | – | > 75% | < 1.25 nM | 70 to 75% | 70 to 75% | 1.25 to 10 nM | – | – | –
COc1cc(-c2cn(C)c(=O)c(C)c2C)cc(OC)c1CN1CCCN(Cc2cccc3c2CCN(C(=O)/C(C#N)=C/C(C)(C)C)C3C)CC1 (mixture of isomers) [Compound A72, (E/Z)-2-(5-((4-(2,6-dimethoxy-4-(1,4,5-trimethyl-6-oxo-1,6-dihydropyridin-3-yl)benzyl)-1,4-diazepan-1-yl)methyl)-1-methyl-1,2,3,4-tetrahydroisoquinoline-2-carbonyl)-4,4-dimethylpent-2-enenitrile] | – | – | – | – | – | – | 40 to 70% | 10 to 25 nM | 70 to 75% | 70 to 75% | 10 to 25 nM | – | – | –
COc1cc(-c2cn(C)c(=O)c(C)c2C)cc(OC)c1CN1CCN(C(=O)/C(C#N)=C/C(C)(C)C)CC1 [BRD9a, (E/Z)-2-(4-(2,6-dimethoxy-4-(1,4,5-trimethyl-6-oxo-1,6-dihydropyridin-3-yl)benzyl)piperazine-1-carbonyl)-4,4-dimethylpent-2-enenitrile] | 50 to 70% | – | 50 to 70% | 40 to 70% | > 200 nM | 25 to 1000 nM | – | – | – | – | – | – | – | –
COc1cc(-c2cn(C)c(=O)c(C)c2C)cc(OC)c1CN(C)C(=O)/C(C#N)=C/C(C)(C)C [BRD9ac, (E/Z)-2-cyano-N-(2,6-dimethoxy-4-(1,4,5-trimethyl-6-oxo-1,6-dihydropyridin-3-yl)benzyl)-N,4,4-trimethylpent-2-enamide] | 50 to 70% | – | 30 to 50% | – | 25 to 200 nM | – | – | – | – | – | – | – | 40 to 70% | 25 to 1000 nM
COc1cc(-c2cn(C)c(=O)c(C)c2C)cc(OC)c1CN1CCCN(C(=O)/C(C#N)=C/C(C)(C)C)CC1 [BRD9c, (E/Z)-2-(4-(2,6-dimethoxy-4-(1,4,5-trimethyl-6-oxo-1,6-dihydropyridin-3-yl)benzyl)-1,4-diazepane-1-carbonyl)-4,4-dimethylpent-2-enenitrile] | > 70% | < 25 nM | > 70% | – | < 25 nM | – | – | – | – | – | – | – | > 75% | < 1.25 nM
COc1cc(-c2cn(C)c(=O)c(C)c2C)cc(OC)c1CN(C)C1CCN(C(=O)/C(C#N)=C/C(C)(C)C)CC1 [BRD9d, (E/Z)-2-(4-((2,6-dimethoxy-4-(1,4,5-trimethyl-6-oxo-1,6-dihydropyridin-3-yl)benzyl)(methyl)amino)piperidine-1-carbonyl)-4,4-dimethylpent-2-enenitrile] | 50 to 70% | > 200 nM | > 70% | 70 to 75% | 25 to 200 nM | 10 to 25 nM | – | – | – | – | – | – | – | –
